What is called IC50 is the midpoint of a concentration-inhibition curve.

Here are results for one substance from patent US11903999B2, “Combination of AS1411 and SAPC-DOPS for the treatment of glioblastoma multiforme” (University of Cincinnati, priority 2017, dated 2024).

One data set deals with non-GBM tumor cell lines. As to conditions: cited from earlier work.
In data set [1] the test system is U87-MG cells. As to conditions: cited from earlier work.
The subject of data set [2] is Caspase-3 in U87-MG cells. Nature of the data set: Caspase-3 levels as a measure of apoptosis (EnzCheck Caspase-3 Assay Kit). In kind it is cell-based. As to conditions: 15 μM AS1411 for 72 hrs vs 100 μM TMZ for 48 hrs. On the procedure: Caspase activity was measured with a […]. Caspase levels were normalized to total cellular protein with BCA protein assay. Error bars show mean +/−SD.
U87-MG cells were seeded onto standard 60 mm cell culture dishes at 50% confluency. After 24 hrs, 15 μM of AS1411 in DMEM and 100 μM of temozolomide (TMZ) in DMEM were added to each dish. Cells were harvested at 72 hrs and 48 hrs respectively and analyzed using the EnzCheck Caspase-3 Assay Kit from Molecular Probes utilizing the Z-DEVD-AMC substrate (incubated for 30 minutes). Fluorescence excitation/emission: 340/440 nm) was measured with a standard fluorometer.

The test system of data set [3] is U87-MG cells. Nature of the data set: Cell surface PS (Annexin V-FITC) and propidium iodide by flow cytometry. Type of data set: cell-based. As to conditions: 6 μM AS1411. On the procedure:
FIG. 3. […] Error bars show mean +/−SD with **p<0.02 by Student's t-test when compared to control (untreated) cells.
U87-MG cells were seeded onto standard 60 mm cell culture dishes at ˜50% confluency. After 24 hrs, 6 μM of AS1411 in DMEM was added to each dish at 24, 48, and 72 hour time points. Cells were then stained with Annexin V-FITC using a standard staining protocol and evaluated for surface PS levels using flow cytometry.

The subject of data set [4] is U87-MG cells. Nature of the data set: Methuosis-like vacuolization by microscopy. In kind it is cell-based. As to conditions: 15 μM AS1411 for 72 hrs. On the procedure:
FIG. 5. A) AS1411 induces methuosis-like vacuolization in U87-MG Cells, untreated U87-MG cells; B) […] cells treated with 10 μM MIPP for 24 hrs; C) U87-MG cells treated with 15 μM AS1411 for 72 hrs. D) U87-MG cells treated with 15 μM AS1411 for 192 hrs. E) Quantification of number of cells with >5 vacuoles.
U87-MG cells were grown to approximately 50% confluency in standard flat bottom 6 well cell culture plates. The cells were then treated with either 10 μM MIPP (a compound previously shown to induce methuosis) or 15 μM AS1411 for 72 hrs. Photos were taken comparing the two treatment wells with untreated control cells, using a microscope with camera.

Turning to “5′-d(GGTGGTGGTGGTTGTGGTGGTGGTGG)-3′ [AS1411]”, the IC50 in the data set with non-GBM tumor cell lines is 1 µM; in the data set on U87-MG cells [1], 10 µM. Besides, the caspase activity entry in data set [2] was “does not increase caspase activity as much as the apoptotic drug TMZ”. Moreover, the “propidium iodide (PI) positive (dead) cells” value in the data set with U87-MG cells [3] is recorded as “without increasing PI”. Besides, in the data set on U87-MG cells [3] (24, 48, 72 hrs), the “surface PS (Annexin V-FITC)” value is given as “increases surface PS”. The “morphologic changes, vacuolization” value in the data set on U87-MG cells [4] is given as “induces morphologic changes including vacuolization”.
